Results from US11723907B2, “Anti-aging compounds” (THE CLEVELAND CLINIC FOUNDATION, priority 2017, dated 2023).

Legend:
[1] = tested on: fibroblasts; experiment: Gene expression analysis of fibroblasts (RNAseq); type: cell-based; conditions: RNAseq exome
[2] = tested on: cancer cell lines; experiment: Treatment of cancer cell lines; type: cell-based
[3] = tested on: HSC/progenitors from normal bone marrows; experiment: CFU and LTC-IC assays, normal bone marrow; type: cell-based, human; conditions: for colonies formation: tissue culture derived from normal bone marrows; for total number of cells at end of 1st part of LTC-IC assay: versus untreated samples
Description: FIGS. 2A-2G provide graphs and images showing N2N1 and VA support HSC/progenitors populations under pressure of differentiation and tissue culture stress in vitro and in vivo. General schema of CFU (A) and LTC-IC assays (B). […] Representative result of three NBM is shown. (D) The morphology of cells at the end of 1st part of LTC-IC assay is shown. The total number of cells at this step of experiment was always larger in the samples treated with experimental drugs. (E) Treatment of mice with N2N1 promotes maintenance of normal HSC in vivo. Competitive repopulation assay performed on CD45.2 mice treated with N2N1. Summary of four animals, three hematopoietic tissues. […] Representative result of three patients is shown.
While these compounds may have many applications, the inventors have focused on potential usage of these agents to improve the function of HSC in BMF. They have first applied them in a battery of tissue culture assays measuring i) exhaustion kinetics of HSC and ii) hematologic toxicity. […] The inventors then focused our studies on HSC performance measured in CFU assay and in LTC-IC (FIG. 2), the best in vitro surrogate assay for the quantification and functional assessment of HSCs. The potential positive impact of identified pro-survival catalysts on viability and propagation of HSC was evaluated in methylcellulose cultures, classic CFU assay, long-term culture colony-initiating (LTC-IC) cell assays (FIGS. 2A, B and C) and competitive repopulation assay based on CD45.1/2 mouse model (FIG. 2E).
As a starting point for clinical application of identified redox catalysts, the inventors tested them on their ability to stimulate hematopoiesis in normal and damaged bone marrow cells, isolated from the patients with severe AA (FIGS. 2C and F). Very promising data was obtained, confirming the original idea that these small molecules can support propagation of both normal HSC and stem cells presented in damaged or disease bone marrow.

[4] = tested on: fibroblasts derived from Werner syndrome patient; experiment: RLS of Werner syndrome fibroblasts; type: cell-based, human
Description: (§1) FIGS. 1A-1I provide graphs and images showing a new high throughput method for simultaneous detection of senescence associated SAβG activity and ATP in culture of normal pre-aged cells identified two potent anti-aging scaffolds. (A). General schema of HTS. (B). […] (C). Structures and corresponding tautameric forms of lead compounds. (D) Evaluation of possible genotoxic effect of experimental drugs in modified Ames test. 4-Nitroquinoline 1-oxide (4NQO) was used as a positive control. […] The general schema of RLS measurement in different cell types. (F) VA and N2N1 considerably extend RLS of normal human fibroblasts (NHDF) and stromal cells isolated from human normal bone marrow. (G). […] (I). Upper panel: Morphological appearance of NHDF at late passages with or without treatment. Lower panel: Cells were also fixed in para-formaldehyde and stained to detect SAβG.

[5] = tested on: normal fibroblasts; experiment: Telomere length in treated fibroblasts; type: cell-based
Description: Based on results obtained on tissue cultured cells (increased RLS) and an increase in the numbers of HSC surrogate cells (LTC-IC or CFU), the inventors set their future goal to develop a novel pharmacological treatment for AA patients and potentially for other BMF. They have examined the most prominent features of cellular aging: telomere shortening, mitochondrial dysfunction or decline in respiratory capacity and shift in intracellular redox balance toward more oxidized environment. […] The only persistent effect of VA was considerable reduction in global protein disulfide bonds (up to 30%) detected by Elman's reagent or direct labelling of reduced sulfhydryl groups with biotin-switch assay (FIG. 3A). That brought the reductive hypothesis to the inventors' attention. The redox potential is controlled by sophisticated set of diverse enzymes and this system is fed from generation of NADPH by multiple hydrogenases (FIG. 3B). Among them, the glucose-6-phosphate dehydrogenase (G6P) is most important, because it controls the rate limiting step of pentose phosphate pathway. The other important dehydrogenases are isocytrate dehydrogenases (cytoplasmic and mitochondrial, IDH1/2) and 6-phosphogluconate dehydrogenase (6PG). The next anti-oxidant cellular protection layer is thioredoxin and glutathione systems (FIG. 3B). The first one is composed of thioredoxin reductase (TrxR) and thioredoxin. […]

[6] = Modified Ames test for genotoxic effect; conditions: 4NQO positive control
Description: as §1

[7] = tested on: hematopoietic colony assays; experiment: Hematologic toxicity in hematopoietic colony assays; type: cell-based
Description: They have first applied them in a battery of tissue culture assays measuring i) exhaustion kinetics of HSC and ii) hematologic toxicity. […] The inventors then focused our studies on HSC performance measured in CFU assay and in LTC-IC (FIG. 2), the best in vitro surrogate assay for the quantification and functional assessment of HSCs.

[8] = tested on: fibroblasts derived from a patient diagnosed with Bloom syndrome; experiment: RLS of Bloom syndrome fibroblasts; type: cell-based, human
Description: as §1

## O=C1/C(=N/O)C=Cc2ccccc21 [N2N1, 1-naphthoquinone-2-monoxime]
[1]
  expression of stem cell markers: revealed the expression of some stem cell markers
[2]
  toxicity / proliferation: partially toxic
[3]
  colonies formation: promote colonies formation
  total number of cells at end of 1st part of LTC-IC assay: always larger
[4]
  response of RLS to treatment: did not respond
[5]
  telomere length: maintenance of telomere length was observed
[6]
  genotoxic effect: did not show any detrimental effect on DNA integrity
[7]
  LD50: 15 µM
[8]
  response of RLS to treatment: responded positively

## O=C1NC(=O)C(=NO)C(=O)N1 [VA, 2,4,5,6(1H,3H)-pyrimidine-tetrone 5-oxime]
[1]
  expression of stem cell markers: revealed the expression of some stem cell markers
[2]
  toxicity / proliferation: neither toxic nor pro-proliferative
[3]
  colonies formation: promote colonies formation
  total number of cells at end of 1st part of LTC-IC assay: always larger
[4]
  response of RLS to treatment: did not respond
[5]
  telomere length: maintenance of telomere length was observed
[6]
  genotoxic effect: did not show any detrimental effect on DNA integrity
[7]
  LD50: 5000 µM
[8]
  response of RLS to treatment: responded positively
